Measurements reported in patent US20160282364A1, “ASSAY FOR INSULIN-DEGRADING ENZYME (IDE) INHIBITORS” (PRESIDENT AND FELLOWS OF HARVARD COLLEGE, priority 2013, published 2016).

Tests used:
Assay in all cases: Small molecule-enzyme mutant complementation study
Type in all cases: biochemical
hIDE A198Q = target: T1, hIDE A198Q (Homo sapiens, UniProt P14735, A198Q); conditions: A198Q vs hIDE WT, batch 1
T1 construct: The reported N-His6-tagged human IDE42-1019 construct; made in house; host or cells: E. coli Rosetta 2 (DE3) pLysS
T1 sequence (P14735 42-1019 A198Q): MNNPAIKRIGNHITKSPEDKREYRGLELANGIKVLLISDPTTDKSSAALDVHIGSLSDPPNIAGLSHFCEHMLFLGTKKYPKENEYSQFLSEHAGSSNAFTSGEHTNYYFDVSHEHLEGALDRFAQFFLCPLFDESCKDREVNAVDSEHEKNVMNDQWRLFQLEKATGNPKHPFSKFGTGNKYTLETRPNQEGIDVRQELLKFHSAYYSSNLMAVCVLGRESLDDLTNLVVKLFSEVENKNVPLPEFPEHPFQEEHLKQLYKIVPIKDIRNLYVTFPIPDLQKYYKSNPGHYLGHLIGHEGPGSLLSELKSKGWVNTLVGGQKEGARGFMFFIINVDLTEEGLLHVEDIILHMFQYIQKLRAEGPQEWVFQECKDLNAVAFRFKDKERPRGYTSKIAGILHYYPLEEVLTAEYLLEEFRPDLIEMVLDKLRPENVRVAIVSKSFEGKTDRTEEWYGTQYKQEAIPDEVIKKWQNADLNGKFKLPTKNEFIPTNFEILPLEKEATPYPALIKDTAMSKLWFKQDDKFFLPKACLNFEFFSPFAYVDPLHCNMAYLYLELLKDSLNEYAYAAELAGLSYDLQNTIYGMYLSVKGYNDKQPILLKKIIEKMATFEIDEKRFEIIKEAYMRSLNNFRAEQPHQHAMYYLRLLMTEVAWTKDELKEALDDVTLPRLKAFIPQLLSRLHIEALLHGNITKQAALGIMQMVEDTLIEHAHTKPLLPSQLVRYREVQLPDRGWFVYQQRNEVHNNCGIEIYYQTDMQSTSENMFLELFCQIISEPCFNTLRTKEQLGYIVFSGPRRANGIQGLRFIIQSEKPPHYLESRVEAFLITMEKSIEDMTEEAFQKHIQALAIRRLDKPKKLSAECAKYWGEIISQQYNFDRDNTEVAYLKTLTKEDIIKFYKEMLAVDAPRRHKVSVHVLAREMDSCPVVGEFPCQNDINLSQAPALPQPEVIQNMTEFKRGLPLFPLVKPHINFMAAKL
Source text: (§1) Protease assays with fluorogenic peptide substrates. […] All assay data points were obtained in duplicate.
(§2) Site-directed mutagenesis, expression, and purification of human IDE. The reported N-His6-tagged human IDE42-1019 construct was introduced in the expression plasmid pTrcHis-A (Invitrogen) using primers for uracil-specific excision reactions (USER) by Taq (NEB) and Pfu polymerases (PfuTurbo CX®, Agilent). The IDE gene was amplified with the primers 5′-[…]-dU-[…] and 5′-[…] G-dU-[…] (underlined sequences represent overhangs, and italics highlight the PCR priming sequence). Similarly, the pTrcHis-A vector was amplified for USER cloning with the primers 5′-[…] TGA-dU-[…] CCC and 5′-[…]-dU-[…]. Mutant IDE constructs were generated by amplifying the full vector construct with USER cloning primers introducing a mutant overhang (Table 5).
(§3) All PCR products were purified on microcentrifuge membrane columns (MinElute®, Qiagen) and quantified by UV absorbance (NanoDrop). Each fragment (0.2 pmol) was combined in a 10 μL reaction mixture containing 20 units DpnI (NEB), 0.75 units of USER mix (Endonuclease VIII and Uracil-DNA Glycosylase, NEB), 20 mM Tris-acetate, 50 mM potassium acetate, 10 mM magnesium acetate, 1 mM dithiothreitol at pH 7.9 (1× NEBuffer 4). The reactions were incubated at 37° C. for 45 min, followed by heating to 80° C. and slow cooling to 30° C. (0.2° C./s). The hybridized constructs were directly used for heat-shock transformation of chemically competent NEB turbo E. coli cells according to the manufacturer's instructions. Transformants were selected on carbenicillin LB agar, and isolated colonies were cultured overnight in 2 mL LB.
(§4) The plasmid was extracted using a microcentrifuge membrane column kit (Miniprep®, Qiagen), and the sequence of genes and vector junctions were confirmed by Sanger sequencing (Table 6). The plasmid constructs were transformed by heat-shock into chemically-competent expression strain Rosetta 2 (DE3) pLysS E. coli cells (EMD Millipore), and selected on carbenicillin/chloramphenicol LB agar. Cells transformed with IDE pTrcHis A constructs were cultured overnight at 37° C. in 2 XYT media (31 g in 1 L) containing 100 μg/mL ampicillin and 34 μg/mL chloramphenicol. Expression of His6-tagged IDE proteins was induced when the culture measured OD600 ˜0.6 by addition of isopropyl-β-D-1-thiogalactopyranoside (IPTG) to 1 mM final concentration, incubated overnight at 37° C., followed by centrifugation at 10,000 g for 30 min at 4° C.
(§5) Recombinant His6-tagged proteins were purified by Ni(II)-affinity chromatography (IMAC sepharose beads, GE Healthcare®) according to the manufacturer's instructions. The cell pellets were resuspended in pH 8.0 buffer containing 50 mM phosphate, 300 mM NaCl, 10 mM imidazole, 1% Triton X-100 and 1 mM tris(2-carboxyethyl)phosphine hydrochloride (TCEP), and were lysed by probe sonication for 4 min at 4° C., followed by clearing of cell debris by centrifugation at 10,000 g for 25 min at 4° C. The supernatant was incubated with Ni(II)-doped IMAC resin (2 mL) for 3 h at 4° C. The resin was washed twice with the cell resuspension/lysis buffer, and three times with pH 8.0 buffer containing 50 mM phosphate, 300 mM NaCl,50 mM imidazole and 1 mM TCEP. Elution was performed in 2 mL aliquots by raising the imidazole concentration to 250 mM and subsequently to 500 mM in the previous buffer. The fractions were combined and the buffer was exchanged to the recommended IDE buffer (R&D) using spin columns with 100 KDa molecular weight cut off membranes (Millipore). Protein yields were typically ˜10 μg/L, and >90% purity based on gel electrophoresis analysis (Coomassie stained).

hIDE A198T = target: T2, hIDE A198T (Homo sapiens, UniProt P14735, A198T); conditions: A198T vs hIDE WT, batch 2
T2 construct: The reported N-His6-tagged human IDE42-1019 construct; made in house; host or cells: E. coli Rosetta 2 (DE3) pLysS
T2 sequence (P14735 42-1019 A198T): as the sequence (P14735 42-1019 A198Q) above, with Q157T counted along it
Source text: as §1, §2, §3, §4, §5

hIDE A198Y = target: T3, hIDE A198Y (Homo sapiens, UniProt P14735, A198Y); conditions: A198Y vs hIDE WT, batch 2
T3 construct: The reported N-His6-tagged human IDE42-1019 construct; made in house; host or cells: E. coli Rosetta 2 (DE3) pLysS
T3 sequence (P14735 42-1019 A198Y): as the sequence (P14735 42-1019 A198Q) above, with Q157Y counted along it
Source text: as §1, §2, §3, §4, §5

hIDE F202L = target: T4, hIDE F202L (Homo sapiens, UniProt P14735, F202L); conditions: F202L vs hIDE WT, batch 1
T4 construct: The reported N-His6-tagged human IDE42-1019 construct; made in house; host or cells: E. coli Rosetta 2 (DE3) pLysS
T4 sequence (P14735 42-1019 F202L): as the sequence (P14735 42-1019 A198Q) above, with Q157A, F161L counted along it
Source text: as §1, §2, §3, §4, §5

hIDE F202R = target: T5, hIDE F202R (Homo sapiens, UniProt P14735, F202R); conditions: F202R vs hIDE WT, batch 2
T5 construct: The reported N-His6-tagged human IDE42-1019 construct; made in house; host or cells: E. coli Rosetta 2 (DE3) pLysS
T5 sequence (P14735 42-1019 F202R): as the sequence (P14735 42-1019 A198Q) above, with Q157A, F161R counted along it
Source text: as §1, §2, §3, §4, §5

hIDE G361Q = target: T6, hIDE G361Q (Homo sapiens, UniProt P14735, G361Q); conditions: G361Q vs hIDE WT, batch 3
T6 construct: The reported N-His6-tagged human IDE42-1019 construct was introduced in the expression plasmid pTrcHis-A; made in house; host or cells: E. coli Rosetta 2 (DE3) pLysS
T6 sequence (P14735 42-1019 G361Q): as the sequence (P14735 42-1019 A198Q) above, with Q157A, G320Q counted along it
Source text: as §1, §2, §3, §4, §5

hIDE I310R = target: T7, hIDE I310R (Homo sapiens, UniProt P14735, I310R); conditions: I310R vs hIDE WT, batch 2
T7 construct: The reported N-His6-tagged human IDE42-1019 construct; made in house; host or cells: E. coli Rosetta 2 (DE3) pLysS
T7 sequence (P14735 42-1019 I310R): as the sequence (P14735 42-1019 A198Q) above, with Q157A, I269R counted along it
Source text: as §1, §2, §3, §4, §5

hIDE I374M = target: T8, hIDE I374M (Homo sapiens, UniProt P14735, I374M); conditions: I374M vs hIDE WT, batch 1
T8 construct: The reported N-His6-tagged human IDE42-1019 construct was introduced in the expression plasmid pTrcHis-A; made in house; host or cells: E. coli Rosetta 2 (DE3) pLysS
T8 sequence (P14735 42-1019 I374M): as the sequence (P14735 42-1019 A198Q) above, with Q157A, I333M counted along it
Source text: as §1, §2, §3, §4, §5

hIDE K364A = target: T9, hIDE K364A (Homo sapiens, UniProt P14735, K364A); conditions: K364A vs hIDE WT, batch 2
T9 construct: The reported N-His6-tagged human IDE42-1019 construct was introduced in the expression plasmid pTrcHis-A; made in house; host or cells: E. coli Rosetta 2 (DE3) pLysS
T9 sequence (P14735 42-1019 K364A): as the sequence (P14735 42-1019 A198Q) above, with Q157A, K323A counted along it
Source text: as §1, §2, §3, §4, §5

hIDE V360Q = target: T10, hIDE V360Q (Homo sapiens, UniProt P14735, V360Q); conditions: V360Q vs hIDE WT, batch 1
T10 construct: The reported N-His6-tagged human IDE42-1019 construct was introduced in the expression plasmid pTrcHis-A; made in house; host or cells: E. coli Rosetta 2 (DE3) pLysS
T10 sequence (P14735 42-1019 V360Q): as the sequence (P14735 42-1019 A198Q) above, with Q157A, V319Q counted along it
Source text: as §1, §2, §3, §4, §5

hIDE V360R = target: T11, hIDE V360R (Homo sapiens, UniProt P14735, V360R); conditions: V360R vs hIDE WT, batch 3
T11 construct: The reported N-His6-tagged human IDE42-1019 construct was introduced in the expression plasmid pTrcHis-A; made in house; host or cells: E. coli Rosetta 2 (DE3) pLysS
T11 sequence (P14735 42-1019 V360R): as the sequence (P14735 42-1019 A198Q) above, with Q157A, V319R counted along it
Source text: as §1, §2, §3, §4, §5

hIDE W199Y = target: T12, hIDE W199Y (Homo sapiens, UniProt P14735, W199Y); conditions: W199Y vs hIDE WT, batch 2
T12 construct: The reported N-His6-tagged human IDE42-1019 construct; made in house; host or cells: E. coli Rosetta 2 (DE3) pLysS
T12 sequence (P14735 42-1019 W199Y): as the sequence (P14735 42-1019 A198Q) above, with Q157A, W158Y counted along it
Source text: as §1, §2, §3, §4, §5

hIDE Y314F = target: T13, hIDE Y314F (Homo sapiens, UniProt P14735, Y314F); conditions: Y314F vs hIDE WT, batch 2
T13 construct: The reported N-His6-tagged human IDE42-1019 construct; made in house; host or cells: E. coli Rosetta 2 (DE3) pLysS
T13 sequence (P14735 42-1019 Y314F): as the sequence (P14735 42-1019 A198Q) above, with Q157A, Y273F counted along it
Source text: as §1, §2, §3, §4, §5

NC(=O)CCC1NC(=O)C=CC(=O)NC(C(N)=O)CCCCNC(=O)C(Cc2ccc(C(=O)c3ccccc3)cc2)NC(=O)C(CC2CCCCC2)NC1=O (stereo not shown) [Compound 6b]
IC50 shift (hIDE A198Q): 2.3 fold | IC50 shift (hIDE A198T): 16 fold | IC50 shift (hIDE A198Y): 0.5 fold | IC50 shift (hIDE F202L): 1.7 fold | IC50 shift (hIDE F202R): 3.7 fold | IC50 shift (hIDE G361Q): 0.8 fold | IC50 shift (hIDE I310R): 0.8 fold | IC50 shift (hIDE I374M): 0.7 fold | IC50 shift (hIDE K364A): 26 fold | IC50 shift (hIDE V360Q): 1.5 fold | IC50 shift (hIDE V360R): 1.4 fold | IC50 shift (hIDE W199Y): 1.8 fold | IC50 shift (hIDE Y314F): 1.2 fold
